Reference: PubChem BioAssay AID1963439 (Molecular Pharmacology Branch, DTP, NCI, 2024)
Values joined by “and” are separate entries in the source; they are usually repeats but may differ in a detail not shown here. Equal entries are not always repeated.

Test system: NCI-H196 complex spheroids with HUVEC/MSC, growth % T/C
Experiment: Anticancer human tumor NCI-H196 cell line growth inhibition [Asc];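 also: spheroids exposed to compound for 7 days before measurement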;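 as to viability, T/C: 100% = DMSO vehicle control wells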
Details: for viability, T/C: stronger effect = lower value; active = viability on the fitted dose curve at most 10% of control; inactive = the rest
Outline: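 Stromal components (HUVEC and hMSC) are co-assembled with the cancer cells into multicellular spheroids. Drugs are then added singly or paired, at concentrations falling by half-log increments from a clinically achievable maximum, capped at 10 microM without known Cmax.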

[1] = curve of first compound, second compound 0.1 µM
[2] = curve of first compound, second compound 0.316 µM
[3] = curve of first compound, second compound 1 µM

C=C(F)C(=O)N1CCN(c2nc(OCC3CCCN3C)nc3c2CCN(c2cccc4cccc(Cl)c24)C3)CC1CC#N (stereo not given) + CCN1C(C(=O)NC23CCC(C(=O)O)(CC2)CC3)C(c2cccc(Cl)c2F)C2(C(=O)Nc3cc(Cl)ccc32)C12CCCCC2
> 10000 nM: IC50 (curve of first compound, second compound 0.03 µM) | IC50 (curve of first compound, second compound 0.0949 µM) | IC50 (curve of first compound, second compound 0.3 µM) | IC50 (curve of first compound, second compound 0.949 µM) | IC50 (curve of first compound, second compound 3 µM)
inactive: viability, T/C (second compound 0.03 µM, first compound 0.0316 µM) 124% | viability, T/C (second compound 0.03 µM, first compound 0.1 µM) 106% | viability, T/C (second compound 0.03 µM, first compound 0.316 µM) 108% | viability, T/C (second compound 0.03 µM, first compound 1 µM) 102% | viability, T/C (second compound 0.03 µM, first compound 3.16 µM) 108% | viability, T/C (second compound 0.03 µM, first compound 10 µM) 93.2% | viability, T/C (second compound 0.0949 µM, first compound 0.0316 µM) 112% | viability, T/C (second compound 0.0949 µM, first compound 0.1 µM) 107% | viability, T/C (second compound 0.0949 µM, first compound 0.316 µM) 113% | viability, T/C (second compound 0.0949 µM, first compound 1 µM) 101% | viability, T/C (second compound 0.0949 µM, first compound 3.16 µM) 109% | viability, T/C (second compound 0.0949 µM, first compound 10 µM) 96.2% | viability, T/C (second compound 0.3 µM, first compound 0.0316 µM) 108% | viability, T/C (second compound 0.3 µM, first compound 0.1 µM) 114% | viability, T/C (second compound 0.3 µM, first compound 0.316 µM) 103% | viability, T/C (second compound 0.3 µM, first compound 1 µM) 115% | viability, T/C (second compound 0.3 µM, first compound 3.16 µM) 110% | viability, T/C (second compound 0.3 µM, first compound 10 µM) 98.1% | viability, T/C (second compound 0.949 µM, first compound 0.0316 µM) 115% | viability, T/C (second compound 0.949 µM, first compound 0.1 µM) 119% | viability, T/C (second compound 0.949 µM, first compound 0.316 µM) 117% | viability, T/C (second compound 0.949 µM, first compound 1 µM) 106% | viability, T/C (second compound 0.949 µM, first compound 3.16 µM) 114% | viability, T/C (second compound 0.949 µM, first compound 10 µM) 105% | viability, T/C (second compound 3 µM, first compound 0.0316 µM) 135% | viability, T/C (second compound 3 µM, first compound 0.1 µM) 119% | viability, T/C (second compound 3 µM, first compound 0.316 µM) 117% | viability, T/C (second compound 3 µM, first compound 1 µM) 120% | viability, T/C (second compound 3 µM, first compound 3.16 µM) 112% | viability, T/C (second compound 3 µM, first compound 10 µM) 114%

Cc1nc(N2CCC3(CC2)COC(C)C3N)c(CO)nc1Sc1ccnc(N)c1Cl (stereo not given) + CNC(C)C(=O)NC1CN(S(=O)(=O)c2cccc(S(=O)(=O)N3CCC4CCC(C(=O)NC(c5ccccc5)c5ccccc5)N4C(=O)C(NC(=O)C(C)NC)C3)c2)CCC2CCC(C(=O)NC(c3ccccc3)c3ccccc3)N2C1=O
active: viability, T/C (second compound 0.01 µM, first compound 0.03 µM) 7.94% | viability, T/C (second compound 0.01 µM, first compound 0.0949 µM) 5.15% | viability, T/C (second compound 0.01 µM, first compound 0.3 µM) 6.8% | viability, T/C (second compound 0.01 µM, first compound 0.949 µM) 6.64% | viability, T/C (second compound 0.01 µM, first compound 3 µM) 6.64% | viability, T/C (second compound 0.0316 µM, first compound 0.00949 µM) 4.39% | viability, T/C (second compound 0.0316 µM, first compound 0.03 µM) 3.45% | viability, T/C (second compound 0.0316 µM, first compound 0.0949 µM) 4.36% | viability, T/C (second compound 0.0316 µM, first compound 0.3 µM) 3.89% | viability, T/C (second compound 0.0316 µM, first compound 0.949 µM) 4.66% | viability, T/C (second compound 0.0316 µM, first compound 3 µM) 4.54% | viability, T/C (second compound 0.1 µM, first compound 0.00949 µM) 3.47% | viability, T/C (second compound 0.1 µM, first compound 0.03 µM) 3.41% | viability, T/C (second compound 0.1 µM, first compound 0.0949 µM) 4.81% | viability, T/C (second compound 0.1 µM, first compound 0.3 µM) 3.67% | viability, T/C (second compound 0.1 µM, first compound 0.949 µM) 3.69% | viability, T/C (second compound 0.1 µM, first compound 3 µM) 3.62% | viability, T/C (second compound 0.316 µM, first compound 0.00949 µM) 3.86% | viability, T/C (second compound 0.316 µM, first compound 0.03 µM) 6.04% | viability, T/C (second compound 0.316 µM, first compound 0.0949 µM) 2.84% | viability, T/C (second compound 0.316 µM, first compound 0.3 µM) 2.59% | viability, T/C (second compound 0.316 µM, first compound 0.949 µM) 3.03% | viability, T/C (second compound 0.316 µM, first compound 3 µM) 3.1% | viability, T/C (second compound 1 µM, first compound 0.00949 µM) 4.12% | viability, T/C (second compound 1 µM, first compound 0.03 µM) 2.58% | viability, T/C (second compound 1 µM, first compound 0.0949 µM) 2.94% | viability, T/C (second compound 1 µM, first compound 0.3 µM) 2.39% | viability, T/C (second compound 1 µM, first compound 0.949 µM) 2.12% | viability, T/C (second compound 1 µM, first compound 3 µM) 1.83%
inactive: viability, T/C (second compound 0.01 µM, first compound 0.00949 µM) 11%
< 9.49 nM: IC50 (curve of first compound, second compound 0.01 µM) | IC50 (curve of first compound, second compound 0.0316 µM) | IC50 [1] | IC50 [2] | IC50 [3]

CNC(C)C(=O)NC1CN(S(=O)(=O)c2cccc(S(=O)(=O)N3CCC4CCC(C(=O)NC(c5ccccc5)c5ccccc5)N4C(=O)C(NC(=O)C(C)NC)C3)c2)CCC2CCC(C(=O)NC(c3ccccc3)c3ccccc3)N2C1=O (stereo not given) + Cc1c(S(C)(=O)=O)c(-c2cc(F)cc(N3CCN(c4ccc(NS(=O)(=O)c5ccc(NC(CCN6CCC(C(=O)OCCCP(=O)(O)O)CC6)CSc6ccccc6)c(S(=O)(=O)C(F)(F)F)c5)cc4)CC3)c2)c(-c2ccc(Cl)cc2)n1C(C)C
inactive: viability, T/C (second compound 0.1 µM, first compound 0.00316 µM) 34.8% | viability, T/C (second compound 0.1 µM, first compound 0.01 µM) 14.2% | viability, T/C (second compound 0.316 µM, first compound 0.00316 µM) 34.8% | viability, T/C (second compound 0.316 µM, first compound 0.01 µM) 13.5% | viability, T/C (second compound 1 µM, first compound 0.00316 µM) 32.3% | viability, T/C (second compound 1 µM, first compound 0.01 µM) 10.1% | viability, T/C (second compound 3.16 µM, first compound 0.00316 µM) 31.1% | viability, T/C (second compound 3.16 µM, first compound 0.01 µM) 11% | viability, T/C (second compound 10 µM, first compound 0.00316 µM) 28.9%
active: viability, T/C (second compound 0.1 µM, first compound 0.0316 µM) 3.61% | viability, T/C (second compound 0.1 µM, first compound 0.1 µM) 1.15% | viability, T/C (second compound 0.1 µM, first compound 0.316 µM) 1.37% | viability, T/C (second compound 0.1 µM, first compound 1 µM) 1.37% | viability, T/C (second compound 0.316 µM, first compound 0.0316 µM) 2.75% | viability, T/C (second compound 0.316 µM, first compound 0.1 µM) 2.2% | viability, T/C (second compound 0.316 µM, first compound 0.316 µM) 0.94% | viability, T/C (second compound 0.316 µM, first compound 1 µM) 0.56% | viability, T/C (second compound 1 µM, first compound 0.0316 µM) 3.17% | viability, T/C (second compound 1 µM, first compound 0.1 µM) 2.28% | viability, T/C (second compound 1 µM, first compound 0.316 µM) 1.22% | viability, T/C (second compound 1 µM, first compound 1 µM) 0.43% | viability, T/C (second compound 3.16 µM, first compound 0.0316 µM) 3.34% | viability, T/C (second compound 3.16 µM, first compound 0.1 µM) 0.68% | viability, T/C (second compound 3.16 µM, first compound 0.316 µM) 0.36% | viability, T/C (second compound 3.16 µM, first compound 1 µM) 0.39% | viability, T/C (second compound 10 µM, first compound 0.01 µM) 6.64% | viability, T/C (second compound 10 µM, first compound 0.0316 µM) 2.27% | viability, T/C (second compound 10 µM, first compound 0.1 µM) 0.74% | viability, T/C (second compound 10 µM, first compound 0.316 µM) 0.42% | viability, T/C (second compound 10 µM, first compound 1 µM) 0.45%
< 3.16 nM: IC50 [1] | IC50 [2] | IC50 [3] | IC50 (curve of first compound, second compound 3.16 µM) | IC50 (curve of first compound, second compound 10 µM)

C#Cc1c(F)ccc2cc(O)cc(-c3ncc4c(N5CC6CCC(C5)N6)nc(OCC56CCCN5CC(F)C6)nc4c3F)c12 (stereo not given)
> 10000 nM: IC50 (curve of compound)
inactive: viability, T/C (compound 0.0316 µM) 94.6% and 101% and 103% | viability, T/C (compound 0.1 µM) 93.4% and 95.6% and 109% | viability, T/C (compound 0.316 µM) 93.4% and 92.8% and 118% | viability, T/C (compound 1 µM) 102% and 100% and 113% | viability, T/C (compound 3.16 µM) 101% and 92.6% and 108% | viability, T/C (compound 10 µM) 105% and 92.6% and 104%

CNC(C)C(=O)NC1CN(S(=O)(=O)c2cccc(S(=O)(=O)N3CCC4CCC(C(=O)NC(c5ccccc5)c5ccccc5)N4C(=O)C(NC(=O)C(C)NC)C3)c2)CCC2CCC(C(=O)NC(c3ccccc3)c3ccccc3)N2C1=O (stereo not given)
active: viability, T/C (compound 0.0316 µM) 5.61% [middle of 14 runs] | viability, T/C (compound 0.1 µM) 3.73% [middle of 14 runs] | viability, T/C (compound 0.316 µM) 3.32% [middle of 13 runs] | viability, T/C (compound 1 µM) 2.97% [middle of 14 runs]
< 10 nM: IC50 (compound alone, run of 10/03/2022)
7.09% [middle of 14 runs]: viability, T/C (compound 0.01 µM)
inactive: viability, T/C (compound 0.00316 µM) 38.2% and 43%
< 3.16 nM: IC50 (curve of compound)
